Measurements taken from US7494996B2 (priority 2000, dated 2009).

What was measured:
Sphaerotheca fuliginea = assay: Cucumber Powdery Mildew (CPM) protectant test in the greenhouse; assay type: in vivo; details: 100 is total disease control, 0 is no disease control; for Cucumber Powdery Mildew (CPM) protectant fungicide data, percent control: 300 g/ha
Method in brief: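 Compounds in acetone-methanol-water (1:1:2) sprayed onto cucumber cv. "Bush Champion" (cotyledons plus one true leaf, 13 days old), dried 4 h. Inoculated 1 day later with 2×10^5 spores/ml; disease control (%) rated after 7 days in greenhouse.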

Pyricularia oryzae = assay: whole plant or invertebrate; assay type: in vivo; details: 100 is total disease control, 0 is no disease control; for Rice Blast (RB) protectant fungicide data, percent control: 300 g/ha, greenhouse

SMILES | Cucumber Powdery Mildew (CPM) protectant fungicide data, percent control (Sphaerotheca fuliginea) [percent control] | Rice Blast (RB) protectant fungicide data, percent control (Pyricularia oryzae) [percent control] | pest or weed control at 300 g/ha (Sphaerotheca fuliginea; Podosphaera fuliginea, topical, 168 h, read-out: Cucumber Powdery Mildew (CPM) protectant fungicide data, percent control) [%] | pest or weed control at 300 g/ha (Pyricularia oryzae; Pyricularia oryzae, topical, 144 h, read-out: Rice Blast (RB) protectant fungicide data, percent control, protectant, 300 g/ha, greenhouse) [%]
O=C1CNC(c2cccc(Cl)c2)=NN1c1ccccc1 [Compound 111] | 90 | 85 |  | 
CCCCN1N=C(c2ccc3ccccc3c2)NCC1=O [Compound 119] | 0 | 99 |  | 
O=c1cnc(-c2ccccc2F)nn1CC(F)(F)F [Compound 263] | 85 | 80 |  | 
N#CCn1nc(-c2ccc(Cl)cc2)ncc1=O [Compound 264] | 0 | 50 |  | 
C#CCN1CC(=O)N(CC(F)(F)F)N=C1c1cc(Cl)cc(Cl)c1 [Compound 169] | 0 | 50 |  | 
O=C1CNC(c2ccc(-c3csnn3)cc2)=NN1CC(F)(F)F [Compound 144] | 0 | 85 |  | 
O=C1CNC(c2ccc(F)c(Cl)c2)=NN1CC(F)(F)F [Compound 1, 1-(2,2,2-trifluoroethyl)-3-(3-chloro-4-fluorophenyl)-4,5-dihydro-1,2,4-triazin-6-one] |  |  | 80 | 99
C#CCN1N=C(c2cccc(Br)c2)NCC1=O [Compound 227] | 75 | 90 |  | 
CCOC(=O)CN1N=C(c2ccc(Cl)c(Cl)c2)NCC1=O [Compound 102] | 50 | 85 |  | 
CCCCOc1ccc(C2=NN(CC(F)(F)F)C(=O)CN2)cc1 [Compound 155] | 85 | 90 |  | 
CCCCN1N=C(c2ccc(Cl)c(Cl)c2)N(C(=O)C(=O)OC)CC1=O [Compound 85] | 50 | 100 |  | 
CCCCOc1ccc(-c2ncc(=O)n(CCC)n2)cc1 [Compound 280] | 0 | 50 |  | 
O=c1cnc(-c2ccc(F)c(Br)c2)nn1CC(F)(F)F [Compound 290] | 50 | 100 |  | 
C=C(Cl)CN1N=C(c2cc(Cl)cc(Cl)c2)NCC1=O [Compound 65] | 50 | 95 |  | 
O=C1CNC(c2cccc(F)c2)=NN1CC1CC1 [Compound 223] | 80 | 95 |  | 
CCCCN1N=C(c2ccc(F)c(Cl)c2)NCC1=O [Compound 106] | 95 | 100 |  | 
CCc1ccc(C2=NN(CC(F)(F)F)C(=O)CN2)cc1 [Compound 150] | 50 | 100 |  | 
C=CCSC(=O)N1CC(=O)N(CCCC)N=C1c1ccc(Cl)c(Cl)c1 [Compound 191] | 50 | 95 |  | 
C#CCN1CC(=O)N(CCCC)N=C1c1cc(Cl)cc(Cl)c1 [Compound 131] | 75 | 80 |  | 
COc1cccc(C2=NN(CC(F)(F)F)C(=O)CN2)c1 [Compound 46] | 0 | 80 |  | 
CCCCN1N=C(c2ccc(OC)cc2)NC(C)C1=O (stereo not shown) [Compound 38] | 50 | 0 |  | 
CCCCN1N=C(c2ccc(Cl)c(Cl)c2)N(CC2CCC2)CC1=O [Compound 201] | 0 | 85 |  | 
O=C1CNC(c2cccc(Br)c2)=NN1CC(F)(F)F [Compound 212] | 85 | 98 |  | 
Cc1cccc(N2N=C(c3ccc(Cl)cc3)NCC2=O)c1 [Compound 58] | 50 | 85 |  | 

SMILES | Cucumber Powdery Mildew (CPM) protectant fungicide data, percent control (Sphaerotheca fuliginea) [percent control] | Rice Blast (RB) protectant fungicide data, percent control (Pyricularia oryzae) [percent control] | pest or weed control at 300 g/ha (Sphaerotheca fuliginea; Podosphaera fuliginea, topical, 168 h, read-out: Cucumber Powdery Mildew (CPM) protectant fungicide data, percent control) [%] | pest or weed control at 300 g/ha (Pyricularia oryzae; Pyricularia oryzae, topical, 144 h, read-out: Rice Blast (RB) protectant fungicide data, percent control, protectant, 300 g/ha, greenhouse) [%]
CCOC(=O)Cn1nc(-c2cccc(C)c2)ncc1=O [Compound 275] | 0 | 85 |  | 
CCCCN1N=C(c2cccc(C(F)(F)F)c2)NCC1=O [Compound 115] | 50 | 100 |  | 
O=C1CNC(c2ccccn2)=NN1Cc1ccccc1 [Compound 185] | 75 | 80 |  | 
O=C1CN(CCCl)C(c2cc(Cl)cc(Cl)c2)=NN1CC(F)(F)F [Compound 126] | 0 | 50 |  | 
C#CCSC(=S)N1CC(=O)N(CCCC)N=C1c1ccc(Cl)c(Cl)c1 [Compound 192] | 75 | 99 |  | 
CCCCN1N=C(c2cc(Cl)cc(Cl)c2)N(C(=O)SC)CC1=O [Compound 129] | 75 | 50 |  | 
O=C1CNC(c2ccc(Cl)cc2Cl)=NN1CC(F)(F)F [Compound 73] | 75 | 85 |  | 
CCCCN1N=C(c2cc(Cl)cc(Cl)c2)N(C(=O)OCOC(C)=O)CC1=O [Compound 118] | 0 | 90 |  | 
CCCCN1N=C(c2cccc(OC)c2)NCC1=O [Compound 114] | 0 | 75 |  | 
Cc1cc(C2=NN(CC(F)(F)F)C(=O)CN2)ccc1[N+](=O)[O-] [Compound 157] | 0 | 98 |  | 
CCOC(=O)N1N=C(c2cccc(Cl)c2)NCC1=O [Compound 198] | 0 | 80 |  | 
O=C1CNC(c2ccc(F)cc2)=NN1CC(F)(F)F [Compound 149] | 75 | 95 |  | 
O=C1CNC(c2ccco2)=NN1CC(F)(F)F [Compound 140] | 50 | 0 |  | 
O=C1CN(C(=O)Oc2ccccc2)C(c2cc(Cl)cc(Cl)c2)=NN1CC(F)(F)F [Compound 193] | 0 | 80 |  | 
CCCCCN1N=C(c2cc(Cl)c(C)c(Cl)c2)NCC1=O [Compound 49] | 75 | 95 |  | 
CCOCCN1N=C(c2cc(Cl)cc(Cl)c2)NCC1=O [Compound 108] | 85 | 90 |  | 
O=C1CNC(c2ccccc2)=NN1 [Compound 32] | 50 | 75 |  | 
CCCCN1N=C(c2ccc(OCC)cc2)NCC1=O [Compound 116] | 0 | 85 |  | 
O=C1CNC(c2cc(Cl)cc(Cl)c2)=NN1 [Compound 64] | 0 | 50 |  | 
CCCCN1N=C(C)NC(c2cccc(OC)c2)C1=O (stereo not shown) [Compound 80] | 50 | 0 |  | 
O=C1CNC(c2ccc(C(F)(F)F)cc2)=NN1CC(F)(F)F [Compound 51] | 0 | 90 |  | 
CCCCCN1N=C(c2ccc(Cl)cc2)NCC1=O [Compound 54] | 85 | 99 |  | 
C#CCOC(=O)N1CC(=O)N(CCCC)N=C1c1ccc(Cl)c(Cl)c1 [Compound 171] | 50 | 80 |  | 
